The source made the active and inactive calls. The rule behind the calls is not given here.
biological target: X-box-binding protein 1 (Homo sapiens) (UniProt P17861); test: XBP1 reporter suppression in cells – counter-screen, dose response (AID 504313); conditions: XBP1 reporter cell assay, percent of control;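 note: CHO cells carrying an XBP1 reporter stimulated with tunicamycin; potency is for inhibition of the tunicamycin-induced reporter signal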

Q: With `N#CC(C#N)=C1C=CC=CN1/C(=C\c1ccccc1Cl)C(=O)c1ccccc1` as the molecule, how does the IC50 read?
A: The IC50 was “inactive”.

Q: Which IC50 does the source give for `Cc1ccc(-n2c(Cl)c(Cl)nc(Cl)c2=O)cc1` here?
A: Its IC50 is 2.32 µM.

Q: Which IC50 does the source give for `Cc1nnc(NC(=O)c2sc3nc(-c4cccs4)cc(C(F)(F)F)c3c2N)s1` here?
A: Its IC50 is “inactive”.

Q: Which IC50 does the source give for `Cc1cccc(N=Nc2c(N)n[nH]c2-c2ccc(Cl)cc2)c1` here?
A: Its IC50 is > 10 µM (inactive).

Q: Which IC50 does the source give for `O=C(NCCNC(=O)c1cc(OCC(F)(F)F)ccc1OCC(F)(F)F)Nc1cccc(C(F)(F)F)c1` here?
A: Its IC50 is > 10 µM (inactive).

Q: For `CC(C)(C)C(=O)c1no[n+]([O-])c1/C(=N/O)C(C)(C)C`, which IC50 is on record?
A: Its IC50 is > 10 µM (inactive).

Q: For `COc1ccc(Cc2nc3ccccc3n2CC(=O)N/N=C/c2ccc(C)cc2O)cc1OC`, which IC50 is on record?
A: Its IC50 is > 10 µM (inactive).

Q: For `CCOc1ccc(N(CC(=O)Nc2cccc(Cl)c2)S(=O)(=O)c2c(C)noc2C)cc1`, which IC50 is on record?
A: The IC50 was “inactive”.

Q: Which IC50 does the source give for `C=CCn1c(SCC(=O)c2[nH]c(C)c(C(=O)OC)c2C)nc2scc(-c3ccc(OC)c(OC)c3)c2c1=O` here?
A: Its IC50 is “inactive”.

Q: How did the IC50 turn out when `CCc1ccc(OCc2n[nH]c(=S)n2C(C)CCCC(C)C)cc1` (configuration not stated) was run?
A: Its IC50 is “inactive”.

Q: How did the IC50 turn out when `CCCCCCCCCCCCCCCC[n+]1cccc2ccccc21` was run?
A: Its IC50 is < 0.16 µM (inactive).

Q: For `COc1ccc(/C=C2/C(=O)ON=C2c2ccccc2)cc1OC`, which IC50 is on record?
A: Its IC50 is > 10 µM (inactive).

Q: With `C=CCSc1nc2ccccc2n1C(=O)/C=C/c1cc(OC)c(OC)c(OC)c1` as the molecule, how does the IC50 read?
A: Its IC50 is 1.73 µM.

Q: Which IC50 does the source give for `COc1ccc(/C=N\NC(=O)COc2ccc(C(C)(C)C)cc2)cc1Cn1nc(C)cc1C` here?
A: Its IC50 is “inactive”.

Q: `Cc1cc(-c2n[nH]c(=S)n2/N=C/C(Br)=C/c2ccccc2)n[nH]1` was tested. Which IC50 did it give?
A: Its IC50 is “inactive”.

Q: Which IC50 does the source give for `NC(=O)c1ccc(C(F)(F)F)n(Cc2ccc(Cl)cc2)c1=O` here?
A: The IC50 was “inactive”.

Q: With `C/C(=C\c1ccco1)C1C(C#N)=C(N)Oc2n[nH]c(-c3ccc(C)cc3)c21` (configuration not stated) as the molecule, how does the IC50 read?
A: The IC50 was > 10 µM (inactive).

Q: With `COc1cc(/C=C(/C#N)c2nc3ccccc3[nH]2)ccc1OCC(=O)Nc1ccccc1C(C)C` as the molecule, how does the IC50 read?
A: Its IC50 is “inactive”.

Q: For `COC(=O)/C=C\C(=O)Nc1cccc([N+](=O)[O-])c1`, which IC50 is on record?
A: The IC50 was > 10 µM (inactive).

Q: For `Cc1cc2c(cc1C)CSC(c1c(O)ccc3ccccc13)SC2`, which IC50 is on record?
A: The IC50 was > 10 µM (inactive).

Q: With `CCOC(=O)C1=C(O)/C(=C/c2ccc(CNC(=O)C(=O)Nc3ccc(C)cc3)o2)N=C1C` as the molecule, how does the IC50 read?
A: Its IC50 is > 10 µM (inactive).

Q: For `Cc1ccc(/C=C2\SC(=S)N(CCCC(=O)Nc3ccccn3)C2=O)cc1`, which IC50 is on record?
A: The IC50 was less than 0.16 µM.

Q: How did the IC50 turn out when `O=C(CCl)Nc1cn(-c2ccccc2)nc1-c1ccccc1` was run?
A: Its IC50 is “inactive”.

Q: For `C/C(=N\OCc1cccc(C(=O)O)c1)c1ccc(Cl)cc1`, which IC50 is on record?
A: The IC50 was “inactive”.

Q: For `COc1oc(-c2ccc(Cl)cc2)nc1C(F)(F)F`, which IC50 is on record?
A: Its IC50 is “inactive”.

Q: How did the IC50 turn out when `CC(=O)OCC1O[C@@H](O[C@@H]2C[C@H]3C(C)(C)[C@H](OC(C)=O)CC[C@]3(C)[C@H]3CC[C@]45C[C@]4(CC[C@H]5[C@@H](C)C[C@@H](O)[C@H](O)C(C)(C)O)[C@@]32C)[C@H](O)[C@@H](O)[C@@H]1O` (some centres not stated) was run?
A: Its IC50 is “inactive”.

Q: With `Cc1cccc(NC2=C/C(=N/S(=O)(=O)c3cccs3)c3ccccc3C2=O)c1` as the molecule, how does the IC50 read?
A: The IC50 was 1.31 µM.

Q: `CN(C)c1ccc(C(CNS(=O)(=O)c2ccc(F)c(F)c2)c2c[nH]c3ccccc23)cc1` (configuration not stated) was tested. Which IC50 did it give?
A: The IC50 was “inactive”.

Q: For `COC(=O)c1ccc2c(=O)n(CCCCCC(=O)N3CCN(c4ccccc4)CC3)c(=O)[nH]c2c1`, which IC50 is on record?
A: Its IC50 is > 10 µM (inactive).

Q: With `CCN1/C(=C/C(C)=C/c2sc3ccccc3[n+]2CC)Sc2ccccc21` as the molecule, how does the IC50 read?
A: Its IC50 is > 10 µM (inactive).

Q: For `CC1CCN(S(=O)(=O)c2ccc3c(c2)C(=NO)c2cc(S(=O)(=O)N4CCC(C)CC4)ccc2-3)CC1`, which IC50 is on record?
A: Its IC50 is 1.27 µM.

Q: `CCCCc1ccc(NC(=S)Nc2ccc(Cl)c(S(=O)(=O)N(C)C)c2)cc1` was tested. Which IC50 did it give?
A: Its IC50 is > 10 µM (inactive).

Q: `Cc1ccccc1N1CCN(C(=O)c2ccc(Oc3ccc(C(F)(F)F)cn3)cc2)CC1` was tested. Which IC50 did it give?
A: Its IC50 is 2.48 µM.

Q: Which IC50 does the source give for `CCOc1cc(/C=N\NC(=O)Cc2ccccc2)ccc1OCC(=O)Nc1ccc(C)c(C)c1` here?
A: The IC50 was “inactive”.

Q: Which IC50 does the source give for `C=CCn1c(O)c(C(CC)=Nc2ccc(N(CC)CC)cc2)c(=O)[nH]c1=O` here?
A: Its IC50 is “inactive”.

Q: How did the IC50 turn out when `Cc1ccc(NC(=O)c2cc3ccccc3oc2=O)cc1S(=O)(=O)N(C)C` was run?
A: Its IC50 is less than 0.16 µM.

Q: `COc1ccc(NC(=O)/C(Cl)=C(/Cl)S(=O)Cc2ccc(Cl)cc2)cn1` (configuration not stated) was tested. Which IC50 did it give?
A: Its IC50 is 3.27 µM.

— PubChem BioAssay AID504313 (Emory University Molecular Libraries Screening Center, 2011)
